Source: patent publication US9023635B2, “Bacterial methods” (Imperial Innovations Limited, priority 2010, dated 2015)

Assays:
[1] = test system: PrkC-SAV expressing spores with biotinylated azide and alkyne; details: all click reaction components present; FIG. 26
Method: For all PrkC-SAV spore reactions, 100 nM of biotinylated ‘sensor’ was added to 100 μl reactions of spores at a concentration of OD600 ˜1. […] All reactions were carried out at room temperature. Controls for PrkC-SAV spore experiments omitted each reagent/parameter tested and the affect on germination was assessed. After addition of germinant, terbium was added to a final concentration of 5 μM and fluorescence visualized on a UV transilluminator (Biorad), at periodic time points. A DPA standard was imaged using known concentrations and correlated to fluorescent pixels.
PrkC-SAV expressing spores were incubated in the presence of biotinylated azide and alkyne groups with copper (FIG. 25). DPA release, i.e. germination, was measured by fluorescence in the presence of terbium as described in previous Examples.

[2] = test system: bacterial spore with prkC intracellular and transmembrane domain and the extracellular EPOR domain; test: Germination of bacterial spores expressing chimeric prkC-EPOR receptor; format: cell-based, Bacillus subtilis
[3] = test system: bacterial spores in the absence of the chimeric protein; test: Germination of bacterial spores in the absence of the prkC-EPOR chimeric protein; format: cell-based, Bacillus subtilis
[4] = test system: prkC-SAV spores with complementary biotinylated oligos; test: Germination of prkC-SAV spores with structure-switching anti-thrombin aptamers; format: cell-based; details: FIG. 30
Text: Hall et al (2009) describe a method for protein detection using structure switching aptamers. The well-known example of thrombin as a target, described in the Introduction by Hall et al, was utilised to assess the use of bacterial spores as an alternative readout to release of a quencher from a fluorophore, as illustrated in FIGS. 29-30.

[5] = test system: prkC-SAV spores with biotinylated aptamers; test: Germination of prkC-SAV spores with biotinylated anti-PDGF aptamers; format: cell-based; details: FIG. 28
Text: Presence of the target protein results in binding of the protein by the aptamers, dimerisation of the prkC proteins, and germination of the spores, which can be detected, for example, using methods described in previous Examples.

O=S(=O)([O-])[O-].[Cu+2] [copper, copper (II) sulfate]
germination (DPA release) versus controls omitting azide/alkyne or copper [1]: significant increase in germination

erythropoietin [EPO]
germination efficiency with increased concentration ([2]; FIG. 13, increased concentration of EPO): increase in germination efficiency
germination of spores ([2]; spores expressing prkC-EPOR chimera): stimulation of germination
germination of spores [3]: does not stimulate the germination

thrombin
target protein concentration of optimal detection [4]: 100 nm

B1: PDGF-BB: platelet derived growth factor, in the BB homodimer form (protein, UniProt P01127 82-190, looked up)
Platelet-derived growth …: SLGSLTIAEPAMIAECKTRTEVFEISRRLIDRTNANFLVWPPCVEVQRCSGCCNNRNVQCRPTQVQLRPVQVRKIEIVRKKPIFKKATVTLEDHLACKCETVAAARPVT
modifications: BB homodimer
notes: platelet derived growth factor, in the BB homodimer form
target protein concentration of optimal detection [5]: 0.1 nM
